Biological target: Carbonic anhydrase 6 (Homo sapiens, UniProt P23280)
Sequence (P23280 whole entry): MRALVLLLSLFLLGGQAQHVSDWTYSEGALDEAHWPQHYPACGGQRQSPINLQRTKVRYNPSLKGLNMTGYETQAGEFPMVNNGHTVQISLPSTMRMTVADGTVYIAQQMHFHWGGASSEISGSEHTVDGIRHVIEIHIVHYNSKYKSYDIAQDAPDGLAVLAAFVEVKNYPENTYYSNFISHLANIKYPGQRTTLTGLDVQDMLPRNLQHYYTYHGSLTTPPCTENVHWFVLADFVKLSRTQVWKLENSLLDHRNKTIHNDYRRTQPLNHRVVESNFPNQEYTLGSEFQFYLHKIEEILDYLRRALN

Row | Compound | Ki [µM]
1 | Nc1ccc(S(=O)(=O)Nc2nnc(S(N)(=O)=O)s2)cc1 | 0.073
2 | CCN[C@H]1CN(CCCOC)S(=O)(=O)c2sc(S(N)(=O)=O)cc21 [BRINZOLAMIDE] | 0.0009
3 | Nc1nccc(Nc2ccc(S(N)(=O)=O)cc2)n1 | 0.086
4 | NNc1ccc(S(N)(=O)=O)cc1 | 1.27
5 | NS(=O)(=O)c1ccc(C(=O)O)cc1 [CARZENIDE] | 0.887
6 | Nc1ccc(S(N)(=O)=O)cc1Br | 4.68
7 | Nc1ccc(S(N)(=O)=O)cc1I | 1.02
8 | NS(=O)(=O)c1ccc(CO)cc1 | 6.68
9 | Nc1ccc(S(=O)(=O)NCCc2ccc(S(N)(=O)=O)cc2)cc1 | 0.024
10 | Nc1ccc(S(N)(=O)=O)cc1Cl | 1.1
11 | Nc1ccc(S(N)(=O)=O)cc1F | 0.096
12 | Nc1ccccc1S(N)(=O)=O | 0.772
13 | Nc1ccc(S(N)(=O)=O)cc1 [SULFANILAMIDE] | 0.941
14 | NS(=O)(=O)c1ccc(S(=O)(=O)Nc2cccc3c(Cl)c[nH]c23)cc1 | 0.047
15 | Nc1ccc(S(=O)(=O)NCc2ccc(S(N)(=O)=O)cc2)cc1 | 0.055
16 | NCc1ccc(S(N)(=O)=O)cc1 [MAFENIDE] | 4.8
17 | NNc1ccccc1S(N)(=O)=O | 1.09
18 | Cc1ccc(S(N)(=O)=O)cc1 [P-TOLUENESULFONAMIDE] | 1.58
19 | NS(=O)(=O)c1ccc(CCO)cc1 | 4.15
20 | Cn1nc(S(N)(=O)=O)sc1=N | 0.74

Biological target: Carbonic anhydrase 9 (Homo sapiens, UniProt Q16790)

Row | Compound | Ki [µM]
21 | Cc1ccc(S(N)(=O)=O)cc1 [P-TOLUENESULFONAMIDE] | 0.46
